Data reported in patent publication US20120232070A1, “Use of Indole Derivatives as Nurr-1 Activators for the Application Thereof as a Medicament for the Treatment of Parkinson's Disease” (Laboratoires Fournier SA, priority 2009, published 2012).

Legend:
[1] = target: hNurr1_RXRγFL (NURR1/RXRγ heterodimer) (Homo sapiens, UniProt P43354+P48443); assay: Transactivation assay in Cos-7 cells, NURR-1-Gal4 / RXRγ, luciferase reporter; format: cell-based; details: for Emax: COS-7, read-out: hNurr1_RXRγFL Eff (%), efficacy in % relative to the reference XCT0135908 at 2·10^−5 M (=100%); for EC50: Cos-7 cells, overnight incubation
hNurr1_RXRγFL (NURR1/RXRγ heterodimer), sequence (P43354 328-598): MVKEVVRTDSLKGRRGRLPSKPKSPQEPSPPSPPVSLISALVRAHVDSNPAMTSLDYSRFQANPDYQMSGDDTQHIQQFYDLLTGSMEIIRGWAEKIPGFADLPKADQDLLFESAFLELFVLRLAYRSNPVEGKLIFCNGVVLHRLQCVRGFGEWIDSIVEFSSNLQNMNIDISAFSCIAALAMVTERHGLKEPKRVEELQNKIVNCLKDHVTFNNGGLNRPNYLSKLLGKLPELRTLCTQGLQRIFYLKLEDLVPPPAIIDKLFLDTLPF
hNurr1_RXRγFL (NURR1/RXRγ heterodimer), sequence (P48443 whole entry, the tested form may be a part): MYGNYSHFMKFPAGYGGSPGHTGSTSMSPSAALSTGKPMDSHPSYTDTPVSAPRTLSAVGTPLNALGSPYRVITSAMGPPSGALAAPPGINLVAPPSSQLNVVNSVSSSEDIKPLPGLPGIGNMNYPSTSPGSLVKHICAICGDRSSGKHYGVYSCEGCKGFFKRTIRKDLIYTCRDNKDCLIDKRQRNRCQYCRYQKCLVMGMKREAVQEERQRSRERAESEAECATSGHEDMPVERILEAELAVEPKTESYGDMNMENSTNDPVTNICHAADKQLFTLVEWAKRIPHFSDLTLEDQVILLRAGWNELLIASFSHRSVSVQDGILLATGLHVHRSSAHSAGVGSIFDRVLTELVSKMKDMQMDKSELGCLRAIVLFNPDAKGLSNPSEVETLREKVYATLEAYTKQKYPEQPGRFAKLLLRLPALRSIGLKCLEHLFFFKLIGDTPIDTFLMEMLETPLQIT
Description: (§1) First, the capacity of the compounds according to the invention for acting as an activator of the heterodimers formed by the NURR-1 nuclear receptor and the RXR nuclear receptors was measured by an in vitro assay.
(§2) A transactivation assay was used as a primary screening assay. Cos-7 cells were co-transfected with a plasmid expressing a chimera of the human receptor NURR-1-Gal4, a plasmid expressing the human receptor RXR (RXRα or RXRγ receptor) and a reporter plasmid 5Gal4pGL3-TK-Luc. The transfections were performed by means of a chemical agent (Jet PEI).
(§3) The transfected cells were distributed in 384-well plates and left resting for 24 hours.
(§4) After 24 hours, the culture medium was changed. The products according to the invention were added (final concentration between 10^−4 and 3·10^−10 M) to the culture medium. After overnight incubation, luciferase expression was measured after addition of “SteadyGlo” according to the manufacturer's instructions (Promega).
(§5) 4-[[6-Methyl-2-phenyl-5-(2-prop enyl)-4-pyrimidinyl]amino]-benzoic acid (called XCT0135908, which was described in the article by Wallen-Mackenzie et al. published in Genes & Development 17, pages 3036-3047) at 2·10^−5 M (RXR agonist) was used as reference.
(§6) The levels of induction (designated by “efficiency”) were calculated relative to the baseline activity of each heterodimer. The results were expressed as a percentage of the level of induction relative to the level of induction obtained with the reference (the level of induction of the reference is arbitrarily taken to be 100%).

[2] = target: hNurr1_RXRαFL (NURR1/RXRα heterodimer) (Homo sapiens, UniProt P19793+P43354); assay: Transactivation assay in Cos-7 cells, NURR-1-Gal4 / RXRα, luciferase reporter; format: cell-based; details: for Emax: COS-7, read-out: hNurr1_RXRαFL Eff (%), efficacy in % relative to the reference XCT0135908 at 2·10^−5 M (=100%); for EC50: Cos-7 cells, overnight incubation
hNurr1_RXRαFL (NURR1/RXRα heterodimer), sequence (P19793 whole entry, the tested form may be a part): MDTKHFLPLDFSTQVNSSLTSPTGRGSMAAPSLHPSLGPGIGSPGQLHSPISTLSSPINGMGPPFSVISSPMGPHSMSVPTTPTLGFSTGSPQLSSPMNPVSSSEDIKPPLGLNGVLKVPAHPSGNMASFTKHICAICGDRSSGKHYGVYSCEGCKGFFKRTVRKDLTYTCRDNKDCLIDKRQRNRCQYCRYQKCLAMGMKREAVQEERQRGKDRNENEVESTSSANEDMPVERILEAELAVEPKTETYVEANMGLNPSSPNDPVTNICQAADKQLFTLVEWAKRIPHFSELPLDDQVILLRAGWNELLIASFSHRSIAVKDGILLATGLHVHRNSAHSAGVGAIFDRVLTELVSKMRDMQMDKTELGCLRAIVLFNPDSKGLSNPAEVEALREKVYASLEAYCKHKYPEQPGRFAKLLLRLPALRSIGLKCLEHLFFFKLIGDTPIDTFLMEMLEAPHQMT
hNurr1_RXRαFL (NURR1/RXRα heterodimer), sequence (P43354 328-598): as the sequence (P43354 328-598) above
Description: as §1, §2, §3, §4, §5, §6

Compound: COC(=O)c1ccc(Cc2cc3ccccc3n2S(=O)(=O)c2cccc(C(C)(C)C)c2)cc1 [Example 194, 4-[[1-[[3-(1,1-dimethylethyl)phenyl]sulfonyl]-1H-indol-2-yl]methyl]-benzoic acid, methyl ester]
- Emax [1]: 36%
- EC50 [1]: 316 nM
- Emax [2]: 42%
- EC50 [2]: 344 nM

Compound: CC(C)(CO)c1cccc(S(=O)(=O)n2c(Cc3ccc(C(=O)O)cc3)cc3cc(C(F)(F)F)ccc32)c1 [Example 231, 4-[[1-[[3-(2-hydroxy-1,1-dimethylethyl)phenyl]sulfonyl]-5-(trifluoromethyl)-1H-indol-2-yl]methyl]benzoic acid]
- Emax [1]: 62%
- EC50 [1]: 164 nM
- Emax [2]: 81%
- EC50 [2]: 65 nM

Compound: CCc1ccc(S(=O)(=O)n2c(Cc3ccc(C(=O)O)cc3)cc3cc(C(F)(F)F)ccc32)cc1 [Example 133, 4-[[1-[4-ethyl-phenylsulfonyl]-5-(trifluoromethyl)-1H-indol-2-yl]methyl]benzoic acid]
- Emax [1]: 38%
- EC50 [1]: 304 nM
- Emax [2]: 49%
- EC50 [2]: 177 nM

Compound: O=C(O)c1ccc(Cc2cc3cc(Cl)ccc3n2S(=O)(=O)c2ccc(F)cc2)cc1 [Example 167, 4-[[1-[4-fluoro-phenylsulfonyl]-5-(chloro)-1H-indol-2-yl]methyl]benzoic acid]
- Emax [1]: 40%
- EC50 [1]: 2440 nM
- Emax [2]: 48%
- EC50 [2]: 1150 nM

Compound: CCc1ccc(S(=O)(=O)n2c(Cc3ccc(C(=O)O)cc3)cc3cc(Cl)ccc32)cc1 [Example 159, 4-[[1-[4-ethyl-phenylsulfonyl]-5-(chloro)-1H-indol-2-yl]methyl]benzoic acid]
- Emax [1]: 45%
- EC50 [1]: 785 nM
- Emax [2]: 66%
- EC50 [2]: 319 nM

Compound: CCCOc1ccc(S(=O)(=O)n2c(Cc3ccc(C(=O)O)cc3)cc3cc(C(F)(F)F)ccc32)cc1 [Example 123, 4-[[1-[4-propoxy-phenylsulfonyl]-5-(trifluoromethyl)-1H-indol-2-yl]methyl]benzoic acid]
- Emax [1]: 36%
- EC50 [1]: 646 nM
- Emax [2]: 60%
- EC50 [2]: 217 nM

Compound: O=C(O)c1ccc(Cc2cc3cc(C(F)(F)F)ccc3n2S(=O)(=O)c2cccc(C3CC3)c2)cc1 [Example 59, 4-[1-(3-cyclopropyl-benzenesulfonyl)-5-trifluoromethyl-1H-indol-2-ylmethyl]-benzoic acid]
- Emax [1]: 31%
- EC50 [1]: 297 nM
- Emax [2]: 70%
- EC50 [2]: 274 nM

Compound: O=C(O)c1ccc(Cc2cc3cc(C(F)(F)F)ccc3n2S(=O)(=O)c2ccc(-c3ccccc3)s2)cc1 [Example 14, 4-[[1-[(5-phenyl-2-thienyl)sulfonyl]-5-(trifluoromethyl)-1H-indol-2-yl]methyl]benzoic acid]
- Emax [1]: 30%
- EC50 [1]: 778 nM
- Emax [2]: 69%
- EC50 [2]: 396 nM

Compound: O=C(O)c1ccc(Cc2cc3cc(Cl)ccc3n2S(=O)(=O)c2ccc(F)c(F)c2)cc1 [Example 153, 4-[[1-[3-fluoro-4-fluoro-phenylsulfonyl]-5-(chloro)-1H-indol-2-yl]methyl]benzoic acid]
- Emax [1]: 63%
- EC50 [1]: 1390 nM
- Emax [2]: 85%
- EC50 [2]: 851 nM

Compound: Cc1c(Cc2nc(C(=O)O)cs2)n(S(=O)(=O)c2cccc(C(C)(C)C)c2)c2ccc(C(F)(F)F)cc12 [Example 86, 2-[[1-[[3-(1,1-dimethylethyl)-phenyl]sulfonyl]-3-methyl-5-(trifluoro-methyl)-1H-indol-2-yl]methyl]-thiazole-4-carboxylic acid]
- Emax [1]: 34%
- EC50 [1]: 1480 nM
- Emax [2]: 56%
- EC50 [2]: 490 nM

Compound: O=C(O)c1ccc(Cc2cc3cc(C(F)(F)F)ccc3n2S(=O)(=O)c2cccc(SC(F)F)c2)cc1 [Example 126, 4-[[1-[3-difluoromethylsulfanyl-phenylsulfonyl]-5-(trifluoromethyl)-1H-indol-2-yl]methyl]benzoic acid]
- Emax [1]: 32%
- EC50 [1]: 141 nM
- Emax [2]: 44%
- EC50 [2]: 122 nM

Compound: O=C(O)c1ccc(Cc2cc3cc(Cl)ccc3n2S(=O)(=O)c2cc3ccccc3o2)cc1 [Example 177, 4-[[1-[benzofuran-2-sulfonyl]-5-(chloro)-1H-indol-2-yl]methyl]benzoic acid]
- Emax [1]: 17%
- EC50 [1]: > 10000 nM
- Emax [2]: 39%
- EC50 [2]: > 10000 nM

Compound: CC(C)(C)c1cccc(S(=O)(=O)n2c(Cc3ccc(CNS(C)(=O)=O)cc3)cc3cc(C(F)(F)F)ccc32)c1 [Example 227, N-[4-[[1-[[3-(1,1-dimethylethyl)phenyl]sulfonyl]-5-(trifluoromethyl)-1H-indol-2-yl]methyl]benzyl]-methanesulfonamide]
- Emax [1]: 86%
- EC50 [1]: 316 nM
- Emax [2]: 73%
- EC50 [2]: 219 nM

Compound: CCCc1ccc(S(=O)(=O)n2c(Cc3ccc(C(=O)O)cc3)cc3cc(Cl)ccc32)cc1 [Example 152, 4-[[1-[4-propyl-phenylsulfonyl]-5-(chloro)-1H-indol-2-yl]methyl]benzoic acid]
- Emax [1]: 75%
- EC50 [1]: 858 nM
- Emax [2]: 87%
- EC50 [2]: 269 nM

Compound: CC(C)(C)c1cccc(S(=O)(=O)n2c(Cc3cccc(C(=O)O)c3)cc3cc(C(F)(F)F)ccc32)c1 [Example 8, 3-[[1-[[3-(1,1-dimethylethyl)phenyl]sulfonyl]-5-(trifluoromethyl)-1H-indol-2-yl]methyl]benzoic acid]
- Emax [1]: 74%
- EC50 [1]: 99 nM
- Emax [2]: 96%
- EC50 [2]: 101 nM

Compound: CC(C)(C)c1cccc(S(=O)(=O)n2c(Cc3cncc(C(=O)O)c3)cc3cc(C(F)(F)F)ccc32)c1 [Example 204, 3-[[1-[[3-(1,1-dimethylethyl)-phenyl]sulfonyl]-5-trifluoromethyl-1H-indol-2-yl]methyl]-5-pyridine carboxylic acid]
- Emax [1]: 93%
- EC50 [1]: 195 nM
- Emax [2]: 102%
- EC50 [2]: 107 nM

Compound: CN1CCOc2ccc(S(=O)(=O)n3c(Cc4ccc(F)c(C(=O)O)c4)cc4cc(C(F)(F)F)ccc43)cc21 [Example 212, 3-[[1-[[4-methyl-3,4-dihydro-2H-benzo[1,4]oxazin-6-yl]-sulfonyl]-5-trifluoromethyl-1H-indol-2-yl]methyl]-6-fluorobenzoic acid]
- Emax [1]: 81%
- EC50 [1]: 40 nM
- Emax [2]: 80%
- EC50 [2]: 19 nM

Compound: COC(=O)c1ccc(Cc2cc3cc(C(C)(C)C)ccc3n2S(=O)(=O)c2cccc(C(C)(C)C)c2)cc1 [Example 108, 4-[[1-[[3-(1,1-dimethylethyl)phenyl]sulfonyl]-5-(tert-butyl)-1H-indol-2-yl]methyl]benzoic acid, methyl ester]
- Emax [1]: 77%
- EC50 [1]: 646 nM
- Emax [2]: 110%
- EC50 [2]: 157 nM

Compound: Cc1cccc(S(=O)(=O)n2c(Cc3ccc(C(=O)O)cc3)cc3cc(C(F)(F)F)ccc32)c1 [Example 141, 4-[[1-[(3-methylphenyl)sulfonyl]-5-(trifluoromethyl)-1H-indol-2-yl]methyl]benzoic acid]
- Emax [1]: 30%
- EC50 [1]: 364 nM
- Emax [2]: 41%
- EC50 [2]: 285 nM

Compound: CCS(=O)(=O)n1c(Cc2ccc(C(=O)O)cc2)cc2cc(Cl)ccc21 [Example 176, 4-[[5-chloro-1-(ethylsulfonyl)-1H-indol-2-yl]methyl]benzoic acid]
- Emax [1]: 21%
- EC50 [1]: > 10000 nM
- Emax [2]: 33%
- EC50 [2]: 3390 nM

Compound: COC(=O)c1ccc(Cc2cc3cc(C(F)(F)F)ccc3n2S(=O)(=O)c2ccc(C(C)C)cc2)cc1F [Example 1, 2-fluoro-4-[[1-[[4-(1-methylethyl)phenyl]sulfonyl]-5-(trifluoromethyl)-1H-indol-2-yl]methyl]benzoic acid, methyl ester]
- Emax [1]: 60%
- EC50 [1]: 718 nM
- Emax [2]: 65%
- EC50 [2]: 412 nM

Compound: O=C(O)c1ccc(Cc2cc3cc(C(F)(F)F)ccc3n2S(=O)(=O)c2ccc(F)cc2)cc1 [Example 137, 4-[[1-[4-fluoro-phenylsulfonyl]-5-(trifluoromethyl)-1H-indol-2-yl]methyl]benzoic acid]
- Emax [1]: 18%
- EC50 [1]: 730 nM
- Emax [2]: 37%
- EC50 [2]: 529 nM

Compound: COc1cc(Cc2cc3cc(Cl)ccc3n2S(=O)(=O)c2ccc(C(C)C)cc2)ccc1C(=O)O [Example 98, 4-[[5-chloro-1-[[4-(1-methylethyl)phenyl]sulfonyl]-1H-indol-2-yl]methyl]-2-methoxybenzoic acid]
- Emax [1]: 8%
- EC50 [1]: > 10000 nM
- Emax [2]: 64%
- EC50 [2]: 2120 nM

Compound: CC(C)(C)c1ccc(S(=O)(=O)n2c(Cc3ccc(C(=O)O)cc3)cc3cc(Cl)ccc32)cc1 [Example 155, 4-[[1-[4-tert-butyl-phenylsulfonyl]-5-(chloro)-1H-indol-2-yl]methyl]benzoic acid]
- Emax [1]: 59%
- EC50 [1]: 468 nM
- Emax [2]: 69%
- EC50 [2]: 262 nM
